The text below walks through data of patent US6555569B2, “Use of heteroaryl substituted N-(indole-2-carbonyl-) amides for treatment of infection” (Pfizer Inc., priority 2000, dated 2003).

Experiment [1] deals with Chlamydia pneumoniae. In words: Chlamydia pneumoniae infection of HEp-G2 cells, Protocol 1. Particulars: for MIC / MBC: Chlamydia pneumoniae, Protocol 1; for MIC: HEp-G2 cells, 72 h infection, lowest concentration that inhibited the formation of inclusions; for MBC: no inclusions after compound removed and further 48 h incubation; for activity against growth of C. pneumoniae in HEp-2 cells: as shown in Table 2. The class given is cell-based. The procedure: (§1) Protocol 1 was performed in 96-well flat-bottom microtiter plates. Each well contained 100 μL of 10^6 HEp-G2 cells/ml in standard medium that had been incubated for 24 h at 37° C. in 5% CO2. Compound stocks were prepared in dimethylsulfoxide, diluted in two-fold serial dilutions, and added to each well as 10 μL aliquots. Each compound concentration was assayed in triplicate. Elementary bodies (chlamydial stock) were diluted to contain 2×10^4inclusion-forming units (ifu) per milliliter and 90 μL was added to each well. Infection was allowed to proceed for 72 h at 37° C. in 5% CO2, after which the cells were fixed and stained with genus-reactive anti-LPS antibody. The use of a fluorescein (FITC)-conjugated secondary antibody allowed the number of inclusion-containing cells to be identified via inverted fluorescent microscopy. The minimum inhibitory concentration (MIC) was defined as the lowest concentration of compound that inhibited the formation of inclusions. The minimal bactericidal concentration (MBC) was defined as the lowest concentration of compound that prevented the formation of inclusions after the compound had been removed by the addition of fresh medium and the cultures had been incubated for a further 48 h. Procedures for growth and preparation of C. pneumoniae and HEp-G2 cells are described in Kalayoglu, M. V., et al., J. Infect. Dis., 1999, 180:780-790. Methodology for detecting inclusions using an direct fluorescent antibody technique is found in Byrne, G. I., et al. J. Infect. Dis., 1993, 168:415-420.

Experiment [2] has as its system Chlamydia pneumoniae. Briefly: Chlamydia pneumoniae infection of HEp-G2 cells, Protocol 2 (compound added 15 h after challenge). The class given is cell-based. Particulars: for MIC: Chlamydia pneumoniae, Protocol 2, compound added 15 h after challenge of HEp-G2 cells. As for the experimental part:
as §1
Protocol 2 was nearly identical to protocol 1 except that compound was added 15 h after challenge of HEp-G2 cells with C. pneumoniae. This protocol helps distinguish compounds that interfere with latter stages of C. pneumoniae growth and replication.

Experiment [3] relates to C. pneumoniae. In words: C. pneumoniae protocol that treats HEp-G2 cells with cycloheximide. In kind it is cell-based, Chlamydia pneumoniae. Particulars: cycloheximide 1 μg/mL.

≈ marks a conversion by molar mass, not a printed value.

Take `O=C(N[C@@H](Cc1ccc(F)cc1)C(=O)N1CCC(O)CC1)c1cc2cc(Cl)ccc2[nH]1` [Compound 1]: in experiment [1], 12.5 µg/mL (≈ 28.2 µM) was the least that counted as inhibitory (MIC), the MBC was found to be 25 µg/mL (≈ 56.3 µM) and the “activity against growth of C. pneumoniae in HEp-2 cells” value is “exhibited activity”. The same compound gave an MIC in experiment [2] of 12.5 µg/mL (≈ 28.2 µM). Besides, in experiment [2] (comparison of compound 1 with compound 2), the “interfering with the latter stage of pneumoniae growth and replication” value is on record as “superior to compound 2”. In addition, in experiment [3], the “MICs in a protocol that treats HEp-G2 cells with cycloheximide” value is reported as “did not differ”.
Take `O=C(N[C@@H](Cc1ccccc1)C(=O)N1CC(O)C1)c1cc2cc(Cl)ccc2[nH]1` [Compound 2]: in experiment [1], the MIC was 25 µg/mL (≈ 62.8 µM), the MBC was 25 µg/mL (≈ 62.8 µM) and the “activity against growth of C. pneumoniae in HEp-2 cells” value was “exhibited activity”. Also, the MIC in experiment [2] amounted to 50 µg/mL (≈ 126 µM). Moreover, the “MICs in a protocol that treats HEp-G2 cells with cycloheximide” value in experiment [3] was “did not differ”.
